According to patent US8357733B2, “Processes for making silane, hydrophobated silica, silica masterbatch and rubber products” (Industrias Negromex, S.A. de C.V., priority 2008, dated 2013):

How the values were obtained:
[1] = Solubility of silanes in water-isopropanol mixtures; assay type: physicochemical; details: for Water solubility: comparison methoxysilane vs ethoxysilane, see Table 4; for Soluble?: water-isopropanol, 96.0 % water (wt.)
Protocol: An aqueous solution of silane was prepared by charging to a vessel 4 grams of isopropanol, 0.7 grams of acetic acid and then 1.57 grams (4% by wt silica) of mercapto Propyl trimethoxysilane (Silquest A189). The mixture was then stirred vigorously at room temperature while 96 grams of water was slowly added. The mixture was then stirred for a further 15 minutes until the solution cleared.
The following experiments were conducted to examine the solubility of various silane coupling agents.

[2] = as above; assay type: physicochemical; details: for Soluble?: water-isopropanol

CCO[Si](CCCS)(OCC)OCC [MPTES, mercaptopropyltriethoxysilane]
Water solubility [1]: insoluble
Soluble? ([2]; 63.2 % water (wt.), pH 3.5-4.0): insoluble and No

CO[Si](CCCS)(OC)OC [MPTMS, mercaptopropyl trimethoxysilane]
Water solubility [1]: soluble
Soluble? ([1]; pH 3.5-4.0): soluble
Soluble? ([1]; pH 3.5-4.0, listed as MPTMS (A189)): Yes
Soluble? ([2]; 63.2 % water (wt.), pH 3.5-4.0): Yes

CCO[Si](CCCSSCCC[Si](OCC)(OCC)OCC)(OCC)OCC [TESPD, bis-(3-triethoxysilylpropyl)-disulfide]
Solubility in the water-alcohol mixture ([1]; procedure of comparative example 1A (4 grams isopropanol, 0.7 grams acetic acid, 96 grams water), high purity TESPD): not soluble
Soluble? ([2]; 22.2 % water (wt.), pH 3.8): soluble and Yes
Soluble? ([2]; 27.8 % water (wt.), pH 3.5): insoluble and No

CO[Si](CCCSSCCC[Si](OC)(OC)OC)(OC)OC [TMSPD, bis-(3-trimethoxysilylpropyl)-disulfide]
Soluble? ([1]; pH 4.1): soluble
Soluble? ([1]; pH 4.1, listed as TMSPD (Present invention)): Yes
Solubility in 70/30 water/isopropanol mixture ([2]; TMSPD prepared using the Pletka process, no unusual precautions to purify the methanol): insoluble
